Source: BindingDB's records for doi:10.1016/j.bmcl.2004.12.045 (Nimbus Therapeutics, 2022)

Key:
[1] = biological target: T1, Cytochrome P450 2C8 (Homo sapiens, UniProt P10632); assay: Inhibition of CYP2C8 (unknown origin)
T1 sequence (P10632 whole entry): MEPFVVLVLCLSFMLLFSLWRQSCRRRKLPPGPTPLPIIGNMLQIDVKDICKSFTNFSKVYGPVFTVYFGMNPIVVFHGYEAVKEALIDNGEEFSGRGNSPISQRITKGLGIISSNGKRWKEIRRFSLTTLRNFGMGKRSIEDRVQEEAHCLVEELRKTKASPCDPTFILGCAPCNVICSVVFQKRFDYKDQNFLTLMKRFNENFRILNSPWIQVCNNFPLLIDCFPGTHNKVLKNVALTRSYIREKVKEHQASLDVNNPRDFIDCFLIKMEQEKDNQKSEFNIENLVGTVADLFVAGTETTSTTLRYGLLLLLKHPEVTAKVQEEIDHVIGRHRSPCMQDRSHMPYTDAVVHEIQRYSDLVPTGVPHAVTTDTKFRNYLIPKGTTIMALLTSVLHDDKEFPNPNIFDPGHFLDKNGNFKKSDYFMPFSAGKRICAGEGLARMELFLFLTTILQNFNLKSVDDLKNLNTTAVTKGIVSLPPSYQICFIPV

[2] = biological target: T2, Cytochrome P450 1A2 (Homo sapiens, UniProt P05177); assay: Inhibition of CYP1A2 (unknown origin)
T2 sequence (P05177 whole entry): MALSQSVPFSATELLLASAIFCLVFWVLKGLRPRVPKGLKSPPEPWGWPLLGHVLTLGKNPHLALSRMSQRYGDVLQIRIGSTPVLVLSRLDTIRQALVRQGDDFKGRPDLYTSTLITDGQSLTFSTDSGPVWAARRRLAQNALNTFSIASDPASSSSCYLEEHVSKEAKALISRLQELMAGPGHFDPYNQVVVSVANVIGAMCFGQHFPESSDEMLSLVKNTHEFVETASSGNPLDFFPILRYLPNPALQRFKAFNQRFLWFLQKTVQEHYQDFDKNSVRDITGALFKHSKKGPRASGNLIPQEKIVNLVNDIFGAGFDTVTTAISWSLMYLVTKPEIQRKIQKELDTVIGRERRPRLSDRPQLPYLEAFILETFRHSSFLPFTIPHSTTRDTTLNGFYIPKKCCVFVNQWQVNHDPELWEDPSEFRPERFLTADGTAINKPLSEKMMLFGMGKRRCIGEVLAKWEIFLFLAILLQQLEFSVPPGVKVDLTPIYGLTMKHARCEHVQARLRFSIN

[3] = biological target: Potassium voltage-gated channel subfamily H member 2 (Homo sapiens, UniProt Q12809); assay: Inhibition of hERG measured by patchclamp assay
Potassium voltage-gated channel subfamily H member 2, sequence (Q12809 whole entry): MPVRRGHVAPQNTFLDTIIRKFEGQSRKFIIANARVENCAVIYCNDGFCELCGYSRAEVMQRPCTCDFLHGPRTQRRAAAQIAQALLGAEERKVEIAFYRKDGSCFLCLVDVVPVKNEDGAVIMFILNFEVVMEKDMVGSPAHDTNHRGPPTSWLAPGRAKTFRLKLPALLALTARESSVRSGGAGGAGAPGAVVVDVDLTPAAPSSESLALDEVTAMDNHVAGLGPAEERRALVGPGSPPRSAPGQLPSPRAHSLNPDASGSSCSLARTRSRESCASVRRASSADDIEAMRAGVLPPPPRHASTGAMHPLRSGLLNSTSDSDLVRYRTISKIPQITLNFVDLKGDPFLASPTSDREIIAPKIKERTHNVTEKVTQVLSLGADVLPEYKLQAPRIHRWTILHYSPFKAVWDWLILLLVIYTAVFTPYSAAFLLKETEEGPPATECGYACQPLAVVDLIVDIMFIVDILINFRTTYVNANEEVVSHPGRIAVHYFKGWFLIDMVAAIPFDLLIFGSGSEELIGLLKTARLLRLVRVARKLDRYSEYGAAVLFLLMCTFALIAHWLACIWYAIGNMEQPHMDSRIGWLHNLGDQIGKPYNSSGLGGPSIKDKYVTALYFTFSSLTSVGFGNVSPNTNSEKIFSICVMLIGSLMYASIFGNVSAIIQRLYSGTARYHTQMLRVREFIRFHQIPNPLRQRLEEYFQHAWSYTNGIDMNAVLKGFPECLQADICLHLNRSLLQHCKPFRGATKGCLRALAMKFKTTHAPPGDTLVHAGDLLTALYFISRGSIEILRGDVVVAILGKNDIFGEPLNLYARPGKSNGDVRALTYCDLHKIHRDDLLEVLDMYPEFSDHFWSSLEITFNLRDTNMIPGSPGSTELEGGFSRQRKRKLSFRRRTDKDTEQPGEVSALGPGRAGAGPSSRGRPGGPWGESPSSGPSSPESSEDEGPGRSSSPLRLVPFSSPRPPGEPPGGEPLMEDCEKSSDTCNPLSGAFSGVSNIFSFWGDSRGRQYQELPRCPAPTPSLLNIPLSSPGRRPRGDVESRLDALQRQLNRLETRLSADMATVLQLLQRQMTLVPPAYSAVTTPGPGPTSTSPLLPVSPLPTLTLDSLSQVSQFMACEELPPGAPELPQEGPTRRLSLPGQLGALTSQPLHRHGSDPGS

[4] = biological target: Cytochrome P450 2C19 (Homo sapiens, UniProt P33261); assay: Inhibition of CYP2C19 (unknown origin)
Cytochrome P450 2C19, sequence (P33261 whole entry): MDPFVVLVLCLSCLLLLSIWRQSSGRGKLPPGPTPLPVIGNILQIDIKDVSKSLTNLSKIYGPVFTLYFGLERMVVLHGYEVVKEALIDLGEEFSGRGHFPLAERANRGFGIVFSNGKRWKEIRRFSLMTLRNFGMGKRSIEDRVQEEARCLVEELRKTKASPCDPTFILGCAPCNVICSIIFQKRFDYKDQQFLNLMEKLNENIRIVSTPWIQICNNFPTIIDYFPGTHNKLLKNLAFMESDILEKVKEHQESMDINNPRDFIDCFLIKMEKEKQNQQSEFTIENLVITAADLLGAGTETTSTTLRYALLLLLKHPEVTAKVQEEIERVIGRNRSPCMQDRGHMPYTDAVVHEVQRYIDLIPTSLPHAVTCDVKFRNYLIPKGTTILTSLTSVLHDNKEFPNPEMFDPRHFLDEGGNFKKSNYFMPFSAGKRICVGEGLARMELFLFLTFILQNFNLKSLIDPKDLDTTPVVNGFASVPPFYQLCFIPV

[5] = biological target: T3, Cytochrome P450 2A6 (Homo sapiens, UniProt P11509); assay: Inhibition of CYP2A6 (unknown origin)
T3 sequence (P11509 whole entry): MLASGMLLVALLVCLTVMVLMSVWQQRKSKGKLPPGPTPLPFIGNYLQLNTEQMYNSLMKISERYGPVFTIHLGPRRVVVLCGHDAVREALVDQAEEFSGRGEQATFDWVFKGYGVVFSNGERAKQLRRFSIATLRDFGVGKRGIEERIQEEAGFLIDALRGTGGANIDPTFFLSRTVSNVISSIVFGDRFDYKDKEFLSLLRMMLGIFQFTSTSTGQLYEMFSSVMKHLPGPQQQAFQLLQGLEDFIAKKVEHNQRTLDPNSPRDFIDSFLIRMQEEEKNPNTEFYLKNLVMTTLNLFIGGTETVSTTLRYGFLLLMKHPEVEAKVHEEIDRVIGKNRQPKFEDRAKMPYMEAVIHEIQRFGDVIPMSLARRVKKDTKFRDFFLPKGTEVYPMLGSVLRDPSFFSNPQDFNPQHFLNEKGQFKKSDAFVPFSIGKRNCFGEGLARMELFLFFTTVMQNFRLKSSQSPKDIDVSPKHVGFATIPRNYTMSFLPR

[6] = biological target: Cytochrome P450 3A5 (Homo sapiens, UniProt P20815); assay: Inhibition of CYP3A5 (unknown origin)
Cytochrome P450 3A5, sequence (P20815 whole entry): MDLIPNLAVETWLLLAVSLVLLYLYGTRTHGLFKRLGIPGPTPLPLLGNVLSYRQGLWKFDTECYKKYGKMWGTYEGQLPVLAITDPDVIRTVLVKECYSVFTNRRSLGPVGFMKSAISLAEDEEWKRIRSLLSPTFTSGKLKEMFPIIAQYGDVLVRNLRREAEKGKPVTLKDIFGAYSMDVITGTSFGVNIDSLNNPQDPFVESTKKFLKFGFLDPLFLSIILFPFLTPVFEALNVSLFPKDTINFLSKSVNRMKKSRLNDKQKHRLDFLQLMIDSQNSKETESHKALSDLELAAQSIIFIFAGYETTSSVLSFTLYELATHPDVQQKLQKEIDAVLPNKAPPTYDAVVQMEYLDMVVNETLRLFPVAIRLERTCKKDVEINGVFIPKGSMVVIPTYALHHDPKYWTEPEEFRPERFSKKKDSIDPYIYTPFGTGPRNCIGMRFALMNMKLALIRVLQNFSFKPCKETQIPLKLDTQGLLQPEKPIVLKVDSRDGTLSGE

[7] = biological target: Cytochrome P450 3A4 (Homo sapiens, UniProt P08684); assay: Inhibition of CYP3A4 (unknown origin)
Cytochrome P450 3A4, sequence (P08684 whole entry): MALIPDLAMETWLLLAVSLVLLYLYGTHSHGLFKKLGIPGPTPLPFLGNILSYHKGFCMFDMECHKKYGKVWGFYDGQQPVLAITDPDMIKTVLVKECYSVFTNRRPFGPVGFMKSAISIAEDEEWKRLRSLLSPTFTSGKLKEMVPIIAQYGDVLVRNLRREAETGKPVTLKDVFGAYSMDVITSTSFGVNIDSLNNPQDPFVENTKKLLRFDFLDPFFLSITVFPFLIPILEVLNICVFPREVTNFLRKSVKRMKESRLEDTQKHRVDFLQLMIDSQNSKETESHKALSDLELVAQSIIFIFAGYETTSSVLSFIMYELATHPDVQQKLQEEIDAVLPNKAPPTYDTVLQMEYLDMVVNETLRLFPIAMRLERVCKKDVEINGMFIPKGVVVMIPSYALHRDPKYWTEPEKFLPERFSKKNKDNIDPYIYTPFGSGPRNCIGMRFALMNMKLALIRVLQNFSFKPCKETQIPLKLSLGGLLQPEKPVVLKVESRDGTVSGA

[8] = biological target: Cytochrome P450 2D6 (Homo sapiens, UniProt P10635); assay: Inhibition of CYP2D6 (unknown origin)
Cytochrome P450 2D6, sequence (P10635 whole entry): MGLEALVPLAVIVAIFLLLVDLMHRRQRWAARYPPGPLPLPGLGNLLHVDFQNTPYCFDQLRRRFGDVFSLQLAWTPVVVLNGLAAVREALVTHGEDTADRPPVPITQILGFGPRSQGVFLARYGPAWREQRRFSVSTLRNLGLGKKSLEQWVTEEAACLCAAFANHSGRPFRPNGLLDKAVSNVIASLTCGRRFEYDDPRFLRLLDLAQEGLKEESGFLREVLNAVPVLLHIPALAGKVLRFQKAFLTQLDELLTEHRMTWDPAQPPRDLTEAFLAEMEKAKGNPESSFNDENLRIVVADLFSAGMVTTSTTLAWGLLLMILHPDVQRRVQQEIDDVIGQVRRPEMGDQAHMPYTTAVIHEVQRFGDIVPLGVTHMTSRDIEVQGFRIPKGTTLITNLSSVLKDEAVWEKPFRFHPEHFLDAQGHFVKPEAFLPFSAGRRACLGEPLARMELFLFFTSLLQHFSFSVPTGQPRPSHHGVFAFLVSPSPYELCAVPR

[9] = biological target: Cytochrome P450 2E1 (Homo sapiens, UniProt P05181); assay: Inhibition of CYP2E1 (unknown origin)
Cytochrome P450 2E1, sequence (P05181 whole entry): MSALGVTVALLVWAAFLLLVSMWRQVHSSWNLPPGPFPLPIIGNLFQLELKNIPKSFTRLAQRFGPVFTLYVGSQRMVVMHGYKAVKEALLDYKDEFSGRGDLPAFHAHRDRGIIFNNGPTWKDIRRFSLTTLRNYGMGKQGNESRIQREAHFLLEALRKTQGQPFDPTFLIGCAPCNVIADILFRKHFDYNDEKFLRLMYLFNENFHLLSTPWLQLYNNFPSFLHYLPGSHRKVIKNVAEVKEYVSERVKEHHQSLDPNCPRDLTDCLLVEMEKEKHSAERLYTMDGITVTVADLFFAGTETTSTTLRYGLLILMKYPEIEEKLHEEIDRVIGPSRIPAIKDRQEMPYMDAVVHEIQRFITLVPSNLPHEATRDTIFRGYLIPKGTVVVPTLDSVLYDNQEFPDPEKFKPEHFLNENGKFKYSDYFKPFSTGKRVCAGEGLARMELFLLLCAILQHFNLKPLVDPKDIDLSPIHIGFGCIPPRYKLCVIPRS

[10] = biological target: T4, Cytochrome P450 2B6 (Homo sapiens, UniProt P20813); assay: Inhibition of CYP2B6 (unknown origin)
T4 sequence (P20813 whole entry): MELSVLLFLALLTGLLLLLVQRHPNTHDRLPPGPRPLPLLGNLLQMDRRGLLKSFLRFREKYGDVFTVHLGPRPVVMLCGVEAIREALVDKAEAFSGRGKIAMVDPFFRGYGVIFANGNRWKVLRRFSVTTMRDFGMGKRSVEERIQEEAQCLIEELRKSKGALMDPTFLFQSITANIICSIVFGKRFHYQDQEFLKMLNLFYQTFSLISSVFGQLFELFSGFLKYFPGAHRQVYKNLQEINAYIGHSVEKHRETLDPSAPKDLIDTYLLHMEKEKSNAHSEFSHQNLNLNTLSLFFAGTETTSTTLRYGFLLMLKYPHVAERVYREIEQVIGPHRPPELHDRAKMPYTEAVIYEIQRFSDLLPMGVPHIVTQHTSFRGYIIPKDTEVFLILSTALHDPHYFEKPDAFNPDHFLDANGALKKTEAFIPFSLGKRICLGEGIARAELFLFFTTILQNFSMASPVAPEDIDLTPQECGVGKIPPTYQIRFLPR

[11] = biological target: Cytochrome P450 2C9 (Homo sapiens, UniProt P11712); assay: Inhibition of CYP2C9 (unknown origin)
Cytochrome P450 2C9, sequence (P11712 whole entry): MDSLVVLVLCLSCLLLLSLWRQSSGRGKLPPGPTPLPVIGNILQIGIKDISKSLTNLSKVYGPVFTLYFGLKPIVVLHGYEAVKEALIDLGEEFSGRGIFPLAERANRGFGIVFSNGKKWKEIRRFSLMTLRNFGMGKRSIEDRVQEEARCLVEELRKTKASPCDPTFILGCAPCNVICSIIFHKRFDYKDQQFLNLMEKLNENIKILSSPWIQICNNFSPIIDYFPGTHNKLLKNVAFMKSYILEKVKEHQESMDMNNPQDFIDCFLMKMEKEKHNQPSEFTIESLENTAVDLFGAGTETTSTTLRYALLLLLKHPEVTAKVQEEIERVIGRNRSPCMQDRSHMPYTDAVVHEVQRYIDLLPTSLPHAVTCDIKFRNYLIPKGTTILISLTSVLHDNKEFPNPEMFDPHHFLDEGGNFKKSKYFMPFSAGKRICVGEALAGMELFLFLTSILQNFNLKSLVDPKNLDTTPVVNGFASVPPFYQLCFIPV

Measured: IC50

O=C1NCc2nc(-c3c(F)cccc3F)cc(Nc3ccc(C(=O)N4CCCC4)cc3)c21 [US10336752, Compound 2]
> 30 µM: all assays above
